Data: patent US7928206B2 (priority 2002, dated 2011)
Read-outs that look alike come from different tables or passages of the source.

Legend:
[1] = system: glioblastoma U-87 MG cells transduced with pLCXSN (retroviral vector alone); experiment: cells; conditions: Homo sapiens, 120 h, 5 days of drug exposure
[2] = molecular target: rHSV1-TK, human Herpes simplex virus type 1 thymidine kinase (Human alphaherpesvirus 1 strain 17, UniProt P0DTH5); experiment: Kinetic constants of purified recombinant thymidine kinase (rHSV1-TK); format: biochemical; conditions: substrate AZT
Protocol: (§1) Transformed KY895 were grown to an OD600 nm of 0.5-06 in LB/Ampicillin (100 μg/ml) medium at 37° C. and protein expression was induced by addition of IPTG to make 100 μM. The cells were further grown for 4 h at 25° C. and subsequently harvested by centrifugation.

[3] = molecular target: T1, rAT-ΔN45TK1b, Arabidopsis thaliana thymidine kinase AT-TK1b (SEQ ID NO: 13) with N-terminal deletion of 45 amino acids (Arabidopsis thaliana, UniProt F4KBF5); experiment: Kinetic constants of purified recombinant thymidine kinase (rAT-ΔN45TK1b); format: biochemical, thale cress (Arabidopsis thaliana); conditions: substrate AZT
T1 sequence (F4KBF5 51-282): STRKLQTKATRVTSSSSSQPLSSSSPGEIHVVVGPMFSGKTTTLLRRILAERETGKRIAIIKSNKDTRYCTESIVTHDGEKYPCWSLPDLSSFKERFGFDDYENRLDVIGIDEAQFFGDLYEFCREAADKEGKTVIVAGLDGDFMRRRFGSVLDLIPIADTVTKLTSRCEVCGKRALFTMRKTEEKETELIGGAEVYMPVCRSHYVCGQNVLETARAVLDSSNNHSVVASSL
Protocol: An N-terminal deletion of 45 amino acids was achieved by using the primers
The resulting plasmid was named pGEX-2T-AT-ΔN45TK1b (P663).
as §1

[4] = system: glioblastoma U-87 MG cells transduced with HSV1-TK (human Herpes simplex virus type 1 thymidine kinase); experiment: Cell proliferation (XTT), sensitivity to AZT; format: cell-based; conditions: 120 h, 5 days of drug exposure
Protocol: (§2) Each experiment was performed in four replicates.

[5] = system: glioblastoma U-87 MG cells transduced with PZG69: TomTK1 (tomato TK1, SEQ ID NO: 4); experiment: cells; conditions: Homo sapiens, 120 h, 5 days of drug exposure
Protocol: (§3) Arabidopsis constructs based on AT-TK1a were cut with BamHI/XhoI, and tomato PCR fragments were cut with BglII/XhoI, and cloned into the BglII-XhoI site of plasmid vector pLCXSN, which is a retroviral transfer vector derived from pLXSN (Clontech, cat# K1060-B) by insertion of the CMV promoter upstream of the polylinker.
as §2

[6] = molecular target: T2, rAT-TK1a, Arabidopsis thaliana thymidine kinase AT-TK1a, recombinant wild type, SEQ ID NO: 9 (Arabidopsis thaliana, UniProt Q9S750); experiment: Kinetic constants of purified recombinant thymidine kinase (rAT-TK1a); format: biochemical, thale cress (Arabidopsis thaliana); conditions: substrate AZT
Protocol: as §1

[7] = system: Glioblastoma U-87 MG; experiment: Cell proliferation assay (XTT), sensitivity to AZT of transduced cells; format: cell-based; conditions: Homo sapiens, parental U-87 MG, construct None
Protocol: 293T packaging cells (ATTC CRL-11268) were cultured at 37° C. in OPTIMEM 1 medium (Life Technologies, Inc.). The constructed pLCXSN plasmid vector was transfected into the packaging cells using LipofectAMINE PLUS (Life Technology Inc.) according to the protocol provided by the supplier. The medium from the transfected cells was collected 48 hours after transfection, filtered through a […] filter, pelleted by ultracentrifugation (50,000×g, 90 minutes at 4° C.) and dissolved in TEN buffer (100 mM NaCl, 10 mM Tris pH 7.5, 1 mM EDTA).
The virus-containing buffer was subsequently used to transduce the cancer cell lines with MOI of 5.
as §2

[8] = system: glioblastoma U-87 MG cells transduced with PZG53: AtTK1 (AT-TK1a, Arabidopsis thaliana, SEQ ID NO: 9); experiment: Cell proliferation (XTT), sensitivity to AZT; format: cell-based; conditions: Homo sapiens, 120 h, 5 days of drug exposure
Protocol: as §3, §2

[9] = Cell proliferation (XTT), sensitivity to AZT; format: cell-based; conditions: Homo sapiens, U-87 MG, 120 h, 5 days of drug exposure
Protocol: as §3, §2

[10] = molecular target: rTOM-TK1, tomato (Lycopersicum esculentum) thymidine kinase, recombinant wild type, SEQ ID NO: 4 (Solanum lycopersicum, UniProt Q71F77); format: biochemical; conditions: substrate AZT
Protocol: as §1

[11] = AZT monophosphate kinase activity; format: biochemical; conditions: 30 mU enzyme, 100 μM 3H-labelled substrate
Protocol: (§4) 5 μl, of this mixture were plated on polyethylenimine-cellulose plates, which were developed ascending in 0.5 M […]. The spots with the nucleosides and nucleotides were identified under UV light and cut out.
The radioactivity in the spots was extracted with 0.2 M KCl in 0.1 M HCl, and determined by liquid scintillation counting. 1 pmol radioactive nucleoside/tide counts 850 cpm. […]

[12] = dTMP kinase activity (monophosphate to diphosphate); format: biochemical; conditions: 30 mU enzyme, 100 μM 3H-labelled substrate, 0 to 120 minutes
Protocol: as §4
The radioactivity in the spots was extracted with 0.2 M KCl in 0.1 M HCl, and determined by liquid scintillation counting. 1 pmol radioactive nucleoside/tide counts 850 cpm.
The cpm obtained at the indicated times (15, 30, 60, 90 and 120 minutes, respectively) are determined in the TDP spots derived from 2.5 μl of the reaction mixture.

[13] = molecular target: T2, rAT-TK1a, Arabidopsis thaliana thymidine kinase AT-TK1a, recombinant wild type, SEQ ID NO: 9; conditions: substrate Thd, data from Le Breton C, B. Sc. Report 2002, cited from earlier work
[14] = molecular target: T1, rAT-ΔN45TK1b, Arabidopsis thaliana thymidine kinase AT-TK1b (SEQ ID NO: 13) with N-terminal deletion of 45 amino acids; conditions: substrate Thd; data from Le Breton C, B. Sc. Report 2002; cited from earlier work
[15] = Kinetic constants of purified recombinant TK, substrate AZT; conditions: from Tables 6 and 7
[16] = transient polyclonal cell lines

Sequence of rHSV1-TK, human Herpes simplex virus type 1 thymidine kinase (P0DTH5 whole entry): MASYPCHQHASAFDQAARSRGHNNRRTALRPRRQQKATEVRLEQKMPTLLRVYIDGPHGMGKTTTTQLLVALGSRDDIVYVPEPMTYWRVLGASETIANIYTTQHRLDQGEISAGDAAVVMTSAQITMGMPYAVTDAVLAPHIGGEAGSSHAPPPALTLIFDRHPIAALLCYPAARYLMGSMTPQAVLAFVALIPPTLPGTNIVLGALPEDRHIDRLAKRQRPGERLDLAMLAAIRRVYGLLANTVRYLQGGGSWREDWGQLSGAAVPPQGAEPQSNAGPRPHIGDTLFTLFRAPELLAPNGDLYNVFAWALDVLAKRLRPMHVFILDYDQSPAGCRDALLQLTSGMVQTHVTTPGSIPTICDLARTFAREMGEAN

With `Cc1cn([C@H]2C[C@H](N=[N+]=[N-])[C@@H](CO)O2)c(=O)[nH]c1=O` [AZT, 3′-azido-3′-deoxythymidine] the IC50 ([1]; stable polyclonal cell lines) was 4070 µM, the IC50 [1, 16] was > 5000 µM and the Km ([2]; read-out: Km for AZT) was 1.7 µM. For the same molecule, the “Vmax for AZT” value [2] was 4.1 mU/mg, the “kcat for AZT” value [2] was 0.028 s⁻¹ and the “Vmax for AZT” value [3] was 242 mU/mg. For the same molecule, the “kcat for AZT” value [3] was 0.104 s⁻¹, the IC50 ([4]; stable polyclonal cell lines) was 2580 µM and the IC50 [4, 16] was > 5000 µM. It also gave an IC50 ([5]; stable polyclonal cell lines) of 17 µM, an IC50 [5, 16] of 47 µM and a Km [6] of 3.55 µM. The “Vmax for AZT” value [6] was 244 mU/mg, the “kcat for AZT” value [6] was 0.106 s⁻¹ and the IC50 ([7]; listed under stable polyclonal cell lines) was 2440 µM. For the same molecule, the IC50 ([7]; listed under transient polyclonal cell lines) was 4470 µM, the IC50 ([8]; stable polyclonal cell lines) was 71.9 µM and the IC50 [8, 16] was 97 µM. It also gave an IC50 ([9]; stable polyclonal cell lines, cells transduced with PZG56 construct) of 132 µM, an IC50 ([9]; stable polyclonal cell lines, cells transduced with PZG59 construct) of 25.1 µM and an IC50 ([9]; transient polyclonal cell lines, cells transduced with PZG56 construct) of 303 µM. The IC50 ([9]; transient polyclonal cell lines, cells transduced with PZG59 construct) was 26 µM, the Km [10] was 22.4 µM and the “Vmax for AZT” value [10] was 1579 mU/mg. The “kcat for AZT” value [10] was 0.681 s⁻¹.

With “HSV1-TK: human Herpes simplex virus type 1 thymidine kinase, control; in Table 4 expressed from the pLCXSN vector, in Example 6 purified enzyme” the “degree of phosphorylation of AZT-monophosphate, lower than the thymidine substrate” value [11] was 10 fold, the “phosphorylation of AZT-monophosphate” value ([11]; 0 to 120 minutes) was “phosphorylates both substrates” and the “phosphorylation of TMP to TDP” value [12] was “phosphorylates both substrates”.

In the case of `Cc1cn([C@H]2C[C@H](O)[C@@H](CO)O2)c(=O)[nH]c1=O` [Thd, thymidine], the Km ([13]; read-out: Km for Thd) is listed as 85 µM, the “Vmax for Thd” value [13] is listed as 452 mU/mg and the “kcat for Thd” value [13] is listed as 0.2 s⁻¹. The “Vmax for Thd” value [14] was 165 mU/mg and the “kcat for Thd” value [14] was 0.071 s⁻¹.

B1: rTOM-TK1: purified recombinant tomato (Lycopersicum esculentum) thymidine kinase, SEQ ID NO: 4 (protein, listed as Lycopersicon esculentum)
chain: MAFSSSARNPVDLRNGSKNSFCPVGEIHVIVGPMFAGKTTALLRRVNLESNDGRNVVLIKSSKDARYAVDAVVTHDGTRFPCWSLPDLSSFKQRFGKDAYEKVDVIGIDEAQFFGDLYEFCCNAADFDGKIIVVAGLDGDYLRKSFGSVLDIIPLADTVTKLTARCELCNRRAFFTFRKTNETETELIGGADIYMPVCRQHYVNGQSVNESAKMVLESHKVSNELILESPLVDP
With B1 the “ratio [kcat/Km (Thd)]/[kcat/Km (AZT)]” value [15] was 1.07.

B2: rAT-TK1a: purified recombinant Arabidopsis thaliana thymidine kinase TK1a, SEQ ID NO: 9 (protein, listed as Arabidopsis thaliana)
chain: MATLKASFLIKTLDSDVTGDFLSDLERRGSGAVHVIMGPMFSGKSTSLLRRIKSEISDGRSVAMLKSSKDTRYAKDSVVTHDGIGFPCWALPDLMSFPEKFGLDAYNKLDVIGIDEAQFFGDLYEFCCKVADDDGKIVIVAGLDGDYLRRSFGAVLDIIPIADSVTKLTARCEVCGHKAFFTLRKNCDTRTELIGGADVYMPVCRKHYITNHIVIKASKKVLEDSDKARAESCVAATI
For B2, the “ratio [kcat/Km (Thd)]/[kcat/Km (AZT)]” value [15] was 0.08.
